{
  "source": "patent US20250127702A1",
  "about": "“SUNSCREEN COMPOSITION WITH CRYSTALLINE ORGANIC SUNSCREEN FILTERS” (Edgewell Personal Care Brands, LLC, priority 2021, published 2025)",
  "assay": "Amount of solvent needed to solubilize crystalline sunscreen filters",
  "format": "physicochemical",
  "conditions": "solvent: butyloctyl salicylate, capric/caprylic triglyceride",
  "text": "This is unexpected since it theoretically takes at least 37 g of the solvent combination to solvate 3 g of bis-ethylhexyloxyphenol methoxyphenyl triazine (a filter that is harder to solubilize than even avobenzone). Similarly, the theoretical amount of octocrylene, homosalate, octisalate, octinoxate, ethylhexyl benzoate and C12-C15 alkyl benzoate to solvate 3 g of bis-ethylhexyloxyphenol methoxyphenyl triazine is 21 g. […] Additional benefits from relatively less solvent content, such as migration benefits, are discussed below.\nThis is unexpected since it theoretically takes at least 37 g of the solvent combination to solvate 3 g of bis-ethylhexyloxyphenol methoxyphenyl triazine (a filter that is harder to solubilize than even avobenzone) and 42.8 g of the solvent combination to solvate 15.5 g of the crystalline filter combination.",
  "data": [
    {"compound": "CCCCC(CC)COc1ccc(-c2nc(-c3ccc(OC)cc3)nc(-c3ccc(OCC(CC)CCCC)cc3O)n2)c(O)c1", "note": "(centres unmarked) [bis-ethylhexyloxyphenol methoxyphenyl triazine]", "values": [
      {"measurement": "theoretical amount of the solvent combination to solvate 3 g", "setting": "diisobutyl adipate, diethylhexyl maleate, butyl maleate, butyl oleate, isopropyl myristate", "result": "at least 37 g"},
      {"measurement": "theoretical amount of the solvent combination to solvate 3 g", "setting": "dibutyl adipate and/or diisopropyl adipate", "result": "at least 37 g"}
    ]}
  ]
}
